Test results as given in ChEMBL document CHEMBL1201862, “PubChem BioAssay data set” (2004).
Calls of active or inactive are those of the source.

How the values were obtained:
[1] = biological target: T1, Methionyl-tRNA synthetase, putative (Trypanosoma brucei brucei, UniProt Q38C91); assay type: functional, Trypanosoma brucei brucei strain 927/4 GUTat10.1
T1 sequence (Q38C91 whole entry): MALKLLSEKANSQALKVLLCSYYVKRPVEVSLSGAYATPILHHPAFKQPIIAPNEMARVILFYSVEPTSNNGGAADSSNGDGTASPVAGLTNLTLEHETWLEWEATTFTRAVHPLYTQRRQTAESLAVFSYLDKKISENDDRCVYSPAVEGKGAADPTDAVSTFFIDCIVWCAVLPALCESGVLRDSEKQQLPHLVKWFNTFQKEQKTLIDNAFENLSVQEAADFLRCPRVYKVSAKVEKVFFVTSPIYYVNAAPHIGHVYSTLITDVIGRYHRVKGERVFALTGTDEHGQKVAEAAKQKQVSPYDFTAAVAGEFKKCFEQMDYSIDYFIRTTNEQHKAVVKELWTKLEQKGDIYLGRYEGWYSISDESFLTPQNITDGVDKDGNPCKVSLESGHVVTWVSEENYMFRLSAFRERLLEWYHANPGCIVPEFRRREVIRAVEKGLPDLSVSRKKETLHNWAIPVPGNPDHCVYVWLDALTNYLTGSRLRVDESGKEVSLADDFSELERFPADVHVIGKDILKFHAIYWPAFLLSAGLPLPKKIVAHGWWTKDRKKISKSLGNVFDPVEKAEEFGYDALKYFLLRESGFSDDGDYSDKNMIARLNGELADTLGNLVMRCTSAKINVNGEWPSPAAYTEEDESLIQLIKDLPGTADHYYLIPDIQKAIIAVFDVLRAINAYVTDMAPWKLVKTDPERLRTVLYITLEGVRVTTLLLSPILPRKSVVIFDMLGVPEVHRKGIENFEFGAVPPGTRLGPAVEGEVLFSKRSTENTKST

[2] = Counterscreen for inhibitors of Trypanosoma brucei methionyl tRNA synthetase (MetRS): Luminescence-based cell-based high throughput dose response assay to identify compounds that are cytotoxic to Jurkat human T lymphocyte cells.; assay type: functional
[3] = biological target: T1, Methionyl-tRNA synthetase, putative; assay type: functional, Trypanosoma brucei brucei strain 927/4 GUTat10.1; remark: listed apart in the source
[4] = reduced cellular PGC1a acetyl-lysine signal – cell-based, cherry-picked samples, dose response (AID 720514); assay type: functional;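 further: potency may reflect raised or lowered acetylation signal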
[5] = blockers of HIV-1 envelope-mediated cell-cell fusion – cherry-pick, dose response (AID 652057); assay type: functional, cell-based
[6] = alpha-synuclein stem-loop luciferase translation blockers – H4 neuroglioma cells, luminescence, confirmation (AID 1988); assay type: functional, cell-based
[7] = off-target signal loss in HeLa-CEM21 co-culture – HeLa F-luc CTL cells, cherry-picked, counter-screen for HIV-1 Env fusion inhibitor project, dose response (AID 652040); assay type: functional, cell-based;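 further: potency for signal decrease marking cytotoxic or nonspecific inhibition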
[8] = HIV-1 AD8 envelope cell-cell fusion blockers – cherry-pick, dose response (AID 652062); assay type: functional, cell-based;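 further: luciferase signal from cell-cell fusion driven by HIV-1 clade B AD8 Env; potency is for inhibitors of fusion seen as a drop in luminescence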
[9] = blockers of HIV-1 ZM109 envelope-driven cell-cell fusion – HeLa effector, CEM target cells, luciferase, cherry-pick, dose response (AID 652058); assay type: functional, cell-based;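 further: luciferase signal from HIV-1 Env mediated cell-cell fusion of effector and target cells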
[10] = viability loss in CEM21 cells – cell-based, CellTiter-Glo luminescence, cherry-picked, cytotoxicity control for viral fusion inhibitor project, dose response (AID 652042); assay type: functional;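 further: potency for signal decrease meaning cytotoxicity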
[11] = biological target: T2, DNA repair protein RAD52 homolog (Homo sapiens, UniProt P43351); assay type: functional, biochemical
T2 sequence (P43351 whole entry): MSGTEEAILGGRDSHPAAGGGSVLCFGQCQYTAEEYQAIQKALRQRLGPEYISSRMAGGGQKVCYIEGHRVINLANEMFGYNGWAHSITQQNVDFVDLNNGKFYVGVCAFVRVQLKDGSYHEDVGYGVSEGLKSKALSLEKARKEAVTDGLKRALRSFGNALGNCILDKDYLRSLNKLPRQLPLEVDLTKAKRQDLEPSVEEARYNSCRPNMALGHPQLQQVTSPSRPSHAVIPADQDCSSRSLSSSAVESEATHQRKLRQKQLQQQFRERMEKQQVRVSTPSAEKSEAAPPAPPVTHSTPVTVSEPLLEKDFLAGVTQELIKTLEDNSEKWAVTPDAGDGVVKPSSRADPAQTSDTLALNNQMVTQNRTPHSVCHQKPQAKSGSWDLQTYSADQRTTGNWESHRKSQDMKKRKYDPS

[12] = Trypanosoma cruzi growth suppression in host cells – NIH3T3 host cells, beta-gal luminescence, confirmation (AID 2044); assay type: functional, cell-based;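 further: intracellular parasites grown in NIH/3T3 mouse fibroblasts as host cells; luminescent beta-galactosidase reporter signal from transgenic T. cruzi replicating inside host cells; inhibitors lower the luminescence signal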
[13] = NIH3T3 cell viability loss – ATP luminescence, mouse fibroblasts, counter-screen, dose response (AID 2010); assay type: functional, cell-based;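 further: cells exposed to compound for about 90 hours before reading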
[14] = biological target: FAD-linked sulfhydryl oxidase ALR (Homo sapiens, UniProt P55789); experiment: ALR-catalysed DTT oxidation blockers – biochemical, H2O2 detection, luminescence, cherry-pick, dose response (AID 493248)
Chain of FAD-linked sulfhydryl oxidase ALR (P55789 whole entry): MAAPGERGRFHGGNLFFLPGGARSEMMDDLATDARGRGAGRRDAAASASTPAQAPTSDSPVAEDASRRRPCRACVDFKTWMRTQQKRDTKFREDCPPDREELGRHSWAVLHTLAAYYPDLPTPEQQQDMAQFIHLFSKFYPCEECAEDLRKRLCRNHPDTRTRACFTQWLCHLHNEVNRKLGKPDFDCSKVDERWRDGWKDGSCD

Streptokinase A = biological target: T3, Streptokinase A (Streptococcus pyogenes serotype M1, UniProt P10520); experiment: viability-normalized secreted streptokinase activity reduction – plasminogen activation absorbance, OD405, dose response (AID 1914); assay type: functional, Streptococcus pyogenes M1 GAS;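 further: secreted streptokinase activity via plasminogen activation per viability signal from cell pellet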
T3 sequence (P10520 whole entry): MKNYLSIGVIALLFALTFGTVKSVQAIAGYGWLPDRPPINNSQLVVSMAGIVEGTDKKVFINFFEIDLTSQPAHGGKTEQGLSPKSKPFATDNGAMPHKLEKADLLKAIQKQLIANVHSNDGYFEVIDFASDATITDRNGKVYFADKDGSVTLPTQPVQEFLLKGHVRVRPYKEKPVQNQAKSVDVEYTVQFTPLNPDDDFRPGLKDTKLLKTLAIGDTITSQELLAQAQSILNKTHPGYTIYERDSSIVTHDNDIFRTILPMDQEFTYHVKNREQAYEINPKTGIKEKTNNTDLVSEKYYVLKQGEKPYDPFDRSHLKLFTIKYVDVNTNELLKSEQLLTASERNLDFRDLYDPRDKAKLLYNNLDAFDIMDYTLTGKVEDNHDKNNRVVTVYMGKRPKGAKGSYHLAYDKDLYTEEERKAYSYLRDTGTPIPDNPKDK

[15] = test system: Streptococcus sp. 'group A'; experiment: Streptococcus pyogenes SK(-)GAS viability under kanamycin – luminescence, BacTiterGlo, confirmation, counter-screen for streptokinase expression inhibitor project, dose response (AID 1900); assay type: functional, organism-based
Streptococcus = experiment: GAS UMAA2166 growth inhibition – luminescence, BacTiterGlo, counter-screen for streptokinase expression inhibitor project, dose response (AID 1915); assay type: functional, organism-based;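 further: potency for reduction of bacterial viability or growth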

What does the source list for `CCn1c(SCC(=O)c2c[nH]c3ccccc23)nc2cc(S(=O)(=O)N3CCOCC3)ccc21`?
IC50 [1]: 2.58 µM (active); IC50 [2]: 83.3 µM (inactive); IC50 [3]: 12.2 µM (inactive)

With `CC1=C(Cl)C2=NS(=O)(=O)CCN2C=C1Cl` as the compound, how does the AC50 [4] read?
The AC50 was 3.55 µM (active).

For `O=C1CCCc2c1[nH]c1ccc(Cl)cc21`, which AC50 [5] is on record?
Its AC50 is 3.39 µM (active).

And the EC50 [6]?
The EC50 was 9.1 µM (active).

What about the AC50 [7] of the same compound?
The AC50 was < 0.26 µM (active).

And the AC50 [8]?
Its AC50 is 6.38 µM (active).

And the AC50 [9]?
The AC50 was 15 µM (active).

Which AC50 [5] does the source give for `C[C@H]1CN([C@@H](C)CO)C(=O)Cc2cc(NC(=O)Nc3ccc4c(c3)OCO4)ccc2O[C@H]1CN(C)S(=O)(=O)c1ccccc1` here?
The AC50 was 0.991 µM (active).

And the AC50 [10]?
Its AC50 is 37.3 µM (active).

What about the AC50 [8] of the same compound?
The AC50 was 7.28 µM (active).

What about the AC50 [9] of the same compound?
Its AC50 is 0.739 µM (active).

Which AC50 [5] does the source give for `C[C@H]1CN([C@@H](C)CO)C(=O)Cc2cc(NC(=O)Nc3ccc4c(c3)OCO4)ccc2O[C@H]1CN(C)S(=O)(=O)c1cccs1` here?
Its AC50 is 1.93 µM (active).

What about the AC50 [10] of the same compound?
Its AC50 is 49.9 µM (active).

And the AC50 [8]?
Its AC50 is 22.3 µM (active).

With `CC(=O)Nc1cccc(Oc2nc(NCCN(C)C)nc3ccsc23)c1` as the compound, how does the AC50 [11] read?
Its AC50 is 11.1 µM (active).

With `N#Cc1cccc(-c2ccc([C@@H]3[C@@H]4CN(S(=O)(=O)c5ccc(-c6ccccc6)cc5)C[C@H]3N4)cc2)c1` as the compound, how does the AC50 [4] read?
The AC50 was 1.82 µM (active).

For `C/C(=N\Nc1nc2ccccc2[nH]1)c1ccc2c(c1)OCO2`, which EC50 [12] is on record?
The EC50 was 1.37 µM (active).

And the EC50 [13]?
Its EC50 is > 60 µM (not active).

And the AC50 [14]?
The AC50 was 0.116 µM (active).

What about the IC50 [1] of the same compound?
The IC50 was 119 µM (inactive).

And the EC50 (Streptokinase A)?
The EC50 was > 150 µM (not active).

What about the EC50 [15] of the same compound?
Its EC50 is 13.3 µM (active).

What about the IC50 [2] of the same compound?
The IC50 was 48.4 µM (inactive).

And the EC50 (Streptococcus)?
The EC50 was > 150 µM (not active).

And the IC50 [3]?
The IC50 was 28.2 µM (inactive).

With `CC(C)(C)n1nc(Cc2cccc3ccccc23)c2c(N)ncnc21` as the compound, how does the AC50 [5] read?
The AC50 was 7.07 µM (active).

And the AC50 [7]?
The AC50 was 31.1 µM (active).

And the AC50 [10]?
Its AC50 is 46.8 µM (active).

What about the AC50 [8] of the same compound?
Its AC50 is 34.5 µM (active).
